# Results taken from US20260364184A1, “COMPOUND BASED ON OXOISOINDOLINYL-SUBSTITUTED TETRAHYDROPYRIMIDINE-DIONE AND USE THEREOF” (GLUETACS THERAPEUTICS (SHANGHAI) CO., LTD., priority 2023, published 2026).
# Experiments:
# [1] = test system: Human large cell immunoblastic lymphoma cell line SR; test: Inhibition of SR cell proliferation (CellTiter luminescent viability); format: cell-based; details: Table IE1, CDK4/6 inhibitor-based, 96 hours, read-out: Inhibitory activity (IC50, nM) on tumor cell proliferation, SR
# Summary of the method: (§1)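 Cells are seeded in 96-well plates, cultured at 37 °C, 5% CO2, and treated next day with 5-fold serial compound dilutions (stock series from 2000 μM; 0.5 μL into 100 μL medium). Viability is read by CellTiter-Meiluncell luminescence after the set exposure, and IC50 is taken from growth-inhibition curves.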
# [2] = test system: Human Acute T Lymphoblastic Leukemia Cells (Molt-4); test: Inhibition of Molt-4 cell proliferation (CellTiter luminescent viability); format: cell-based; details: for IC50: Table IE1, CDK4/6 inhibitor-based, Molt-4, 96 hours, read-out: Inhibitory activity (IC50, nM) on tumor cell proliferation, Molt-4; for inhibition at 0.01 µM / inhibition at 0.5 µM: Homo sapiens, MOLT-4, 96 h, Table IH3, BCL-2 inhibitor-based, 96 hours; for inhibition at 0.01 µM: Molt-4, 10 nM, read-out: Inhibition Rate at 10 nM (%); for inhibition at 0.5 µM: Molt-4, 500 nM, read-out: Inhibition Rate at 500 nM (%)
# [3] = test system: Human myeloid monocytic leukemia cell line (MV-4-11); test: Inhibition of MV-4-11 cell proliferation (CellTiter luminescent viability); format: cell-based; details: for IC50: Table IE1, CDK4/6 inhibitor-based, MV-4-11, 96 hours, read-out: Inhibitory activity (IC50, nM) on tumor cell proliferation, MV-4-11
# Summary of the method: as §1
# [4] = test system: Human acute lymphocytic leukemia T lymphocytes cell line (CCRF-CEM); test: Inhibition of CCRF-CEM cell proliferation (CellTiter luminescent viability); format: cell-based; details: for IC50: Table IE1, CDK4/6 inhibitor-based, 96 hours, read-out: Inhibitory activity (IC50, nM) on tumor cell proliferation, CCRF-CEM; for inhibition at 0.01 µM / inhibition at 0.5 µM: Homo sapiens, 96 h, Table IH2, BCL-2 inhibitor-based; for inhibition at 0.01 µM: 10 nM, read-out: Inhibition Rate at 10 nM (%); for inhibition at 0.5 µM: 500 nM, read-out: Inhibition Rate at 500 nM (%)
# [5] = test system: Human breast cancer cell line MCF-7; test: Inhibition of MCF-7 cell proliferation (CellTiter luminescent viability); details: Table IE1, CDK4/6 inhibitor-based; MCF-7, 96 hours; read-out: Inhibitory activity (IC50, nM) on tumor cell proliferation, MCF-7
# Description: (§2) The tumor cells used herein were cultured in a cell culture medium listed in table 3 at 37 °C in an incubator with 5% CO2. Prior to experimentation, all cell lines used were correctly identified by STR profiling, and tested negative for mycoplasma contamination using a mycoplasma detection kit through routine screenings.
# (§3) The IC50 values of the compounds of the present disclosure (including the compounds in Table 1, Table 2, and Examples 1-468) were determined using the CellTiter-Meiluncell Luminescent Cell Viability Assay Kit from Dalian Meilun Biotech Co., Ltd. The detailed procedure is as follows: Tumor cells were seeded in 96-well cell culture plates at the densities specified in Table 4. On the following day, the test compounds of the present disclosure were subjected to serial dilution. The dilution can be performed according to one of the following two methods: • (1) The first dilution method: The test compounds of the present disclosure (including the compounds in Table 1, Table 2, and Examples 1-468) were subjected to 5-fold serial dilutions starting from a highest concentration of 2000 μM, resulting in a total of 9 concentrations from high to low (2000, 400, 80, 16, 3.2, 0.64, 0.128, 0.0256, 0.00512 μM). Subsequently, 0.5 μL of the test compound dilution was transferred into the 96-well plate containing the cells, with each well containing 100 μL of cell culture medium. […] Into the 96-well plate, the diluted test compounds and corresponding detection reagents were added, resulting in final test compound concentrations of 500 nM and 10 nM, respectively. The experimental procedure is described below using the diluted 2 μM test compound as an example.
# (§4) 0.5 μL of the aforementioned diluted compound of the present disclosure (including the compounds in Table 1, Table 2, and Examples 1-468) was added to the seeded cells in 100 μL of medium, yielding a final test compound concentration of 10 nM. After the cells were treated with the compounds of the present disclosure for a specified period, the cell viability assay reagent was added to the culture medium according to the kit's instructions to determine cell viability. […] All controls were treated using the same procedure as the compounds of the present disclosure. The growth inhibition curves for the compounds of the present disclosure were plotted using Prism GraphPad software, and the IC50 values were calculated therefrom.
# [6] = test system: Human lung cancer cell line (H292); test: Inhibition of H292 cell proliferation (CellTiter luminescent viability); format: cell-based; details: NCI-H292, Table IE2, CDK4/6 inhibitor-based, 96 hours
# [7] = target: T1, CDK4 (Homo sapiens, UniProt P11802+Q96SW2); test: Western blot degradation of CDK4; format: cell-based; details: MDA-MB-231 Cell; 24 hours
# T1 construct: expression of target proteins in cells; endogenous in cells
# Summary of the method: (§5)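 Cells treated with compound, lysed, and target protein detected by Western blot (SDS-PAGE, nitrocellulose transfer). DC50 taken as the concentration giving band grayscale half that of DMSO control, estimated by concentration-response fitting; remaining protein (%) from target band normalised to internal control band; degradation (%) = 1 − remaining.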
# [8] = target: T2, CDK6 (Homo sapiens, UniProt Q00534+Q96SW2); test: Western blot degradation of CDK6; format: cell-based; details: MDA-MB-231 Cell; 24 hours
# T2 construct: expression of target proteins in cells; endogenous in cells
# Summary of the method: as §5
# [9] = test system: Human prostate cancer cell line (NCI-H358); test: Inhibition of NCI-H358 cell proliferation (CellTiter luminescent viability); details: Table IH1, BCL-2 inhibitor-based, 96 hours; for inhibition at 0.01 µM: NCI-H358, 10 nM, read-out: Inhibition Rate at 10 nM (%); for inhibition at 0.5 µM: NCI-H358, 500 nM, read-out: Inhibition Rate at 500 nM (%)
# Description: as §2, §3, §4
# [10] = target: T3, BCL-2 (Homo sapiens, UniProt P10415); test: Western blot degradation of BCL-2; format: cell-based; details: Molt-4 Cell; 24 hours
# T3 construct: expression of target proteins in cells; endogenous in cells
# Description: Conventional Western blot assay was performed to evaluate the effects of the compounds of the present disclosure on the expression of target proteins in cells.
# (1) Cell Seeding and Protein Harvesting: The selected cells were processed according to the cell seeding procedure and protein harvesting procedure in Table II-2.
# (2) To the collected supernatant, 5×SDS sample loading buffer was added, followed by denaturation at 95 °C for 5 minutes. The denatured samples were then separated by SDS-PAGE electrophoresis on a polyacrylamide gel. Proteins were transferred to a nitrocellulose membrane (0.45 μm NC membrane), blocked with blocking buffer at room temperature for 1 hour, and subjected to antibody incubation and development procedures according to the antibody manufacturer's instructions (Cell Signaling Technology).
# Half-Maximal Degradation Concentration value (the drug concentration required for degrading proteins by 50%, abbreviated as DC50) reads method: comparing the grayscale values of Western blot bands from drug-treated samples with those from blank DMSO-treated controls, and identifying the drug concentration range at which the grayscale value is half that of the DMSO-treated control bands.
# DC50 values can be calculated using ImageJ software to measure grayscale values of Western blot bands from drug-treated samples. The concentration-response curve is fitted to estimate the drug concentration corresponding to half the grayscale value.
# Target protein remaining (%) refers to the percentage of target protein remaining in cells after treatment with protein degrader compounds.
# Calculation method for target protein remaining (%): Use ImageJ software to measure grayscale values of Western blot bands from drug (protein degrader)-treated samples. The grayscale value of drug-treated bands is divided by that of internal control protein bands, and the resulting quotient is normalized to obtain the relative percentage of remaining target protein after protein degrader treatment.
# Target protein degradation rate (%)=1−target protein remaining (%).
# T2 sequence (Q00534 whole entry): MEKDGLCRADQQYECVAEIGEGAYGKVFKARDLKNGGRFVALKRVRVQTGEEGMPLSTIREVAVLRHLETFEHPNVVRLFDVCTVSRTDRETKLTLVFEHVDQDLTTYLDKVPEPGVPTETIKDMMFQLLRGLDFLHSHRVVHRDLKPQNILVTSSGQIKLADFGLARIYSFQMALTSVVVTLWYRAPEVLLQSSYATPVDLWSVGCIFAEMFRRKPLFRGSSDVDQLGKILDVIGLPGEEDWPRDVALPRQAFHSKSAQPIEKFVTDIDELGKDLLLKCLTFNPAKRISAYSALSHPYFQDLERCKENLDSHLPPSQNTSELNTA
# T2 sequence (Q96SW2 whole entry): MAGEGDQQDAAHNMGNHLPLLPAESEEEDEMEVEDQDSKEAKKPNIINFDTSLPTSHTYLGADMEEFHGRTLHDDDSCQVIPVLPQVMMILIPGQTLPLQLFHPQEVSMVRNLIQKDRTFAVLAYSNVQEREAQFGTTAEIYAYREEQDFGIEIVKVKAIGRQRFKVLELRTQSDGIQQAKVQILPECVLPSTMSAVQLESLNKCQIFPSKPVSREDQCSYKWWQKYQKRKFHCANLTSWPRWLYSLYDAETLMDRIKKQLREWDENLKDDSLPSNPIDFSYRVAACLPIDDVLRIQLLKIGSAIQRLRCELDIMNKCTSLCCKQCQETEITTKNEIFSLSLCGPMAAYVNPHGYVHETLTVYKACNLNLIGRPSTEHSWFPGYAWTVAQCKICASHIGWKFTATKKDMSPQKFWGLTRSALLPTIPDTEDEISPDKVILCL
# T2 sequence (Q16531 whole entry partner): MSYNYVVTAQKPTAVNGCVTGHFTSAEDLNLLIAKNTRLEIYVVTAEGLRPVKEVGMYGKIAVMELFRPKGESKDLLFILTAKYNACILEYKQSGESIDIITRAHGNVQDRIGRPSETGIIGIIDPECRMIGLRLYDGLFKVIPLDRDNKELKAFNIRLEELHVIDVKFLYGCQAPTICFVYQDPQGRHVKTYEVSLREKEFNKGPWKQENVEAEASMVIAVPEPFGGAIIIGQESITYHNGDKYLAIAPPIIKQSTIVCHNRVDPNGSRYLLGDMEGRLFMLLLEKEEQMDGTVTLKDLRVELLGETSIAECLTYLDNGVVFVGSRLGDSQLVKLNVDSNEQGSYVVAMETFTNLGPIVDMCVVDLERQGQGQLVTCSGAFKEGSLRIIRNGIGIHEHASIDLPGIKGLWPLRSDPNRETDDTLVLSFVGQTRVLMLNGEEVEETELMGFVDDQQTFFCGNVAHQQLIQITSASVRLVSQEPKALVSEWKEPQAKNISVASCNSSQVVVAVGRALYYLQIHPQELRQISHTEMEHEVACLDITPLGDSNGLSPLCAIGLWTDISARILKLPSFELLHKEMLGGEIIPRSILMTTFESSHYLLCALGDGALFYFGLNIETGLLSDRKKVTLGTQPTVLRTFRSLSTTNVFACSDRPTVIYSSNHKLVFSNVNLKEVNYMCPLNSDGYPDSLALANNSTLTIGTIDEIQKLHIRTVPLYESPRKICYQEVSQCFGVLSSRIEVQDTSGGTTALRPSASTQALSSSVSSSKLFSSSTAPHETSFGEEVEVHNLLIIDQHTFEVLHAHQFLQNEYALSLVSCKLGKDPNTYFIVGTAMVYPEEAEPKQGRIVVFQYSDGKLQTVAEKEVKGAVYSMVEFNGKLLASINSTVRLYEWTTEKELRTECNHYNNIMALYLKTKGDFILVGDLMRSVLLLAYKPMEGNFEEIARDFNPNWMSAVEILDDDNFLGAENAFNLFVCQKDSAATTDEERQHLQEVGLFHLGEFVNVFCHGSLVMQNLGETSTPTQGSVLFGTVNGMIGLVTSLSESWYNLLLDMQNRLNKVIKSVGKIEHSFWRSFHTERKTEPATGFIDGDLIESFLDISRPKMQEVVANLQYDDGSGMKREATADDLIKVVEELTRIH
# T3 sequence (P10415 whole entry): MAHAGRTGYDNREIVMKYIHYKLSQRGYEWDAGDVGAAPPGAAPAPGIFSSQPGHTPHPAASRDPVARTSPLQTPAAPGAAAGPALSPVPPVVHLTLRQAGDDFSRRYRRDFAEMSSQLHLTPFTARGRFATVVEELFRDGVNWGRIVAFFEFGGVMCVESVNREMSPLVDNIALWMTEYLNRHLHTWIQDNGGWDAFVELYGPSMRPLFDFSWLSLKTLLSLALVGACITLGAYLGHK
# T1 sequence (P11802 whole entry): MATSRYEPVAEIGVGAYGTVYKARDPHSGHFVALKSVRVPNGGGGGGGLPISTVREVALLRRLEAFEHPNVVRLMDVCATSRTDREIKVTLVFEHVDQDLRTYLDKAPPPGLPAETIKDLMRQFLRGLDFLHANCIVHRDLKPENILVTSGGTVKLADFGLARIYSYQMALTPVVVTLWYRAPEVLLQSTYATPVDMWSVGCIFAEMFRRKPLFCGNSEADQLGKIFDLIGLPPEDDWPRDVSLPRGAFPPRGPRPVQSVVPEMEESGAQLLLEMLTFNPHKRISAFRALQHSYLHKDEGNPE
# T1 sequence (Q96SW2 whole entry): as the sequence (Q96SW2 whole entry) above
# T1 sequence (Q16531 whole entry partner): as the sequence (Q16531 whole entry partner) above
Structure (SMILES),IC50 [1],IC50 [2],IC50 [3],IC50 [4],IC50 [5],Degradation of substrate protein CDK6 (substrate protein remaining %) [8],Degradation of substrate protein BCL-2 (substrate protein remaining %) [10],"Inhibition Rate at 10 nM (%) ([3]; Table IE3, CDK4/6 inhibitor-based, MV-4-11, 10 nM, 96 hours)","Inhibition Rate at 500 nM (%) ([3]; Table IE3, CDK4/6 inhibitor-based, MV-4-11, 500 nM, 96 hours)","inhibition at 0.01 µM ([6]; H292, 10 nM, read-out: Inhibition Rate at 10 nM (%))","inhibition at 0.5 µM ([6]; H292, 500 nM, read-out: Inhibition Rate at 500 nM (%))",Degradation of substrate protein CDK4 (substrate protein remaining %) [7],inhibition at 0.01 µM [2],inhibition at 0.5 µM [2],inhibition at 0.01 µM [4],inhibition at 0.5 µM [4],inhibition at 0.01 µM [9],inhibition at 0.5 µM [9]
"Cc1nc2c(F)cc(-c3nc(Nc4ccc(N5CCN(Cc6ccc7c(c6)CN(N6CCC(=O)NC6=O)C7=O)CC5)cn4)ncc3F)cc2n1C(C)C [GT-06672, 1-(5-((4-(6-((5-fluoro-4-(4-fluoro-1-isopropyl-2-methyl-1H-benzo[d]imidazol-6-yl)pyrimidin-2-yl)amino)pyridin-3-yl)piperazin-1-yl)methyl)-1-oxoisoindolin-2-yl)dihydropyrimidine-2,4 (1H,3H)-dione]",100 to 300 nM,–,10 to 50 nM,400 to 800 nM,100 to 300 nM,–,–,–,–,–,–,–,–,–,–,–,–,–
"Cc1nc2c(F)cc(-c3nc(Nc4ccc(N5CCC(N(C)Cc6ccc7c(c6)CN(N6CCC(=O)NC6=O)C7=O)CC5)cn4)ncc3F)cc2n1C(C)C [GT-06837, 1-(5-(((1-(6-((5-fluoro-4-(4-fluoro-1-isopropyl-2-methyl-1H-benzo[d]imidazol-6-yl)pyrimidin-2-yl)amino)pyridin-3-yl)piperidin-4-yl)(methyl)amino)methyl)-1-oxoisoindolin-2-yl)dihydropyrimidine-2,4 (1H,3H)-dione]",10 to 50 nM,100 to 300 nM,10 to 50 nM,100 to 300 nM,100 to 300 nM,A (0%≤substrate protein remaining %≤80%),–,–,–,–,–,A (0%≤substrate protein remaining %≤80%),–,–,–,–,–,–
"CC1(C)CCC(c2ccc(Cl)cc2)=C(CN2CCN(c3ccc(C(=O)NS(=O)(=O)c4ccc(N[C@H](CCN5CC6CCC5CN6Cc5ccc6c(c5)CN(N5CCC(=O)NC5=O)C6=O)CSc5ccccc5)c(S(=O)(=O)C(F)(F)F)c4)cc3)CC2)C1 (stereo partly drawn) [GT-07811, 4-(4-((4′-chloro-4,4-dimethyl-3,4,5,6-tetrahydro-[1,1′-biphenyl]-2-yl)methyl)piperazin-1-yl)-N-((4-(((2R)-4-(5-((2-(2,4-dioxotetrahydropyrimidin-1(2H)-yl)-1-oxoisoindolin-5-yl)methyl)-2,5-diazabicyclo[2.2.2]octan-2-yl)-1-(phenylthio)butan-2-yl)amino)-3-((trifluoromethyl)sulfonyl)phenyl)sulfonyl)benzamide]",–,–,–,–,–,–,A (0%≤substrate protein remaining %≤80%),–,–,–,–,–,40 to 50%,80 to 100%,5 to 10%,80 to 100%,15 to 20%,40 to 50%
"Cc1nc2c(F)cc(-c3nc(Nc4ccc(N5CCC(N6CCN(Cc7ccc8c(c7)CN(N7CCC(=O)NC7=O)C8=O)CC6)CC5)cn4)ncc3F)cc2n1C(C)C [GT-06736, 1-(5-((4-(1-(6-((5-fluoro-4-(4-fluoro-1-isopropyl-2-methyl-1H-benzo[d]imidazol-6-yl)pyrimidin-2-yl)amino)pyridin-3-yl)piperidin-4-yl)piperazin-1-yl)methyl)-1-oxoisoindolin-2-yl)dihydropyrimidine-2,4 (1H,3H)-dione]",10 to 50 nM,100 to 300 nM,10 to 50 nM,100 to 300 nM,50 to 100 nM,A (0%≤substrate protein remaining %≤80%),–,–,–,–,–,B (80%<substrate protein remaining %≤100%),–,–,–,–,–,–
"CC1(C)CCC(c2ccc(Cl)cc2)=C(CN2CCN(c3ccc(C(=O)NS(=O)(=O)c4ccc(N[C@H](CCN5C[C@H]6C[C@@H]5CN6Cc5ccc6c(c5)CN(N5CCC(=O)NC5=O)C6=O)CSc5ccccc5)c(S(=O)(=O)C(F)(F)F)c4)cc3)CC2)C1 [GT-07812, 4-(4-((4′-chloro-4,4-dimethyl-3,4,5,6-tetrahydro-[1,1′-biphenyl]-2-yl)methyl)piperazin-1-yl)-N-((4-(((R)-4-((1R,4R)-5-((2-(2,4-dioxotetrahydropyrimidin-1(2H)-yl)-1-oxoisoindolin-5-yl)methyl)-2,5-diazabicyclo[2.2.1]heptan-2-yl)-1-(phenylthio)butan-2-yl)amino)-3-((trifluoromethyl)sulfonyl)phenyl)sulfonyl)benzamide]",–,–,–,–,–,–,A (0%≤substrate protein remaining %≤80%),–,–,–,–,–,50 to 60%,80 to 100%,20 to 30%,80 to 100%,30 to 40%,50 to 60%

# Continued, in another order:
IC50 [1],IC50 [2],IC50 [3],IC50 [4],IC50 [5],Degradation of substrate protein CDK6 (substrate protein remaining %) [8],Degradation of substrate protein BCL-2 (substrate protein remaining %) [10],Structure (SMILES),"Inhibition Rate at 10 nM (%) ([3]; Table IE3, CDK4/6 inhibitor-based, MV-4-11, 10 nM, 96 hours)","Inhibition Rate at 500 nM (%) ([3]; Table IE3, CDK4/6 inhibitor-based, MV-4-11, 500 nM, 96 hours)","inhibition at 0.01 µM ([6]; H292, 10 nM, read-out: Inhibition Rate at 10 nM (%))","inhibition at 0.5 µM ([6]; H292, 500 nM, read-out: Inhibition Rate at 500 nM (%))",Degradation of substrate protein CDK4 (substrate protein remaining %) [7],inhibition at 0.01 µM [2],inhibition at 0.5 µM [2],inhibition at 0.01 µM [4],inhibition at 0.5 µM [4],inhibition at 0.01 µM [9],inhibition at 0.5 µM [9]
5000 to 10000 nM,> 10000 nM,5000 to 10000 nM,1000 to 5000 nM,1000 to 5000 nM,–,–,"CN(C)C(=O)c1cc2cnc(Nc3ccc(N4CCNCC4)cn3)nc2n1C1CCCC1 [Ribociclib, reference compound]",IEb2 (5% ≤ IEb2 < 10%),IEb7 (30% ≤ IEb7 < 35%),–,–,–,–,–,–,–,–,–
1000 to 5000 nM,1000 to 5000 nM,300 to 400 nM,1000 to 5000 nM,1000 to 5000 nM,–,–,"CC(=O)c1c(C)c2cnc(Nc3ccc(N4CCNCC4)cn3)nc2n(C2CCCC2)c1=O [Palbociclib, reference compound]",–,–,10 to 15%,25 to 30%,–,–,–,–,–,–,–
